Broadly, the IC50 is the concentration needed to halve the response being measured.

This test concerns the target T1, human adenosine A2b receptor (Homo sapiens, UniProt P29275).
T1 sequence (P29275 1-332): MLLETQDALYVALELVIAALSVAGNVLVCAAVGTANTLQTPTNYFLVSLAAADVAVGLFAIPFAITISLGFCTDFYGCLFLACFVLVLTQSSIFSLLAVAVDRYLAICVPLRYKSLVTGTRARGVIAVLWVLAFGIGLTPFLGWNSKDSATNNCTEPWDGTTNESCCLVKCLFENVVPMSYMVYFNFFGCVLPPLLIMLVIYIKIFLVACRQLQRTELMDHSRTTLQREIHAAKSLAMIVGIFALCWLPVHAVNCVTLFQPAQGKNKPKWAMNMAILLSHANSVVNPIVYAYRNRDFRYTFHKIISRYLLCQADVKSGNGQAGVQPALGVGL
The test is described as follows: Cellular in vitro reporter gene test for A2b receptor activity (antagonism of NECA). It is filed as cell-based. Also noted: expressed in transfected cells; host or cells: CHO-K1 (Chinese hamster ovary) with CRE-luciferase reporter. As to conditions: recombinant CHO-K1 cells, CRE-luciferase reporter, co-incubation with EC50 concentration of NECA, 3 hours. The gist of the method: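 CHO-K1 cells expressing recombinant human A2b receptor plus a CRE-driven firefly luciferase reporter. Compounds co-incubated with NECA at its same-day EC50 concentration; luminescence read 3 hours after NECA addition. IC50 values, sometimes means of several determinations rounded to two significant figures.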
A general note: A reporter such as luciferase makes a cellular process visible.

As for `Cc1c(CN2CCNC2=O)sc2c1c(=O)n(C1CC1C)c(=O)n2C[C@H]1CCCO1` (stereo partly drawn) [Example 286, 5-Methyl-3-(2-methylcyclopropyl)-6-[(2-oxoimidazolidin-1-yl)methyl]-1-[(2R)-tetrahydrofuran-2-ylmethyl]thieno[2,3-d]pyrimidine-2,4(1H,3H)-dione], the IC50 amounted to 0.017 µM.
For `Cc1c(CN2CCNC2=O)sc2c1c(=O)n(C1CC1C)c(=O)n2CC1CCOC1` (centres unmarked) [Example 289, 5-Methyl-3-(2-methylcyclopropyl)-6-[(2-oxoimidazolidin-1-yl)methyl]-1-(tetrahydrofuran-3-ylmethyl)thieno[2,3-d]pyrimidine-2,4(1H,3H)-dione], the 50% inhibitory concentration (IC50) amounted to 0.035 µM.
Consider `Cc1c(Cn2[nH]ccc2=O)sc2c1c(=O)n(C1CCC1)c(=O)n2CCC(F)(F)F` [Example 312, 3-Cyclobutyl-5-methyl-6-[(5-oxo-2,5-dihydro-1H-pyrazol-1-yl)methyl]-1-(3,3,3-trifluoropropyl)thieno[2,3-d]pyrimidine-2,4(1H,3H)-dione], for which the concentration for half-maximal inhibition (IC50) is 0.015 µM.
The result for `Cc1c(Cn2[nH]ccc2=O)sc2c1c(=O)n(C1CC(F)(F)C1)c(=O)n2CCC(F)(F)F` [Example 313, 3-(3,3-Difluorocyclobutyl)-5-methyl-6-[(5-oxo-2,5-dihydro-1H-pyrazol-1-yl)methyl]-1-(3,3,3-trifluoropropyl)thieno[2,3-d]pyrimidine-2,4(1H,3H)-dione] reads 0.093 µM; that for `Cc1c(Cn2[nH]ccc2=O)sc2c1c(=O)n(C1CC(C)(C)C1)c(=O)n2CCC(F)(F)F` [Example 314, 3-(3,3-Dimethylcyclobutyl)-5-methyl-6-[(5-oxo-2,5-dihydro-H-pyrazol-1-yl)methyl]-1-(3,3,3-trifluoropropyl)thieno[2,3-d]pyrimidine-2,4(1H,3H)-dione], 0.049 µM; that for `CCn1c(=O)n([C@H]2C[C@@H]2C)c(=O)c2c(C)c(Cn3nc[nH]c3=O)sc21` [Example 316, 1-Ethyl-5-methyl-3-[(1S,2S)-2-methylcyclopropyl]-6-[(5-oxo-4,5-dihydro-1H-1,2,4-triazol-1-yl)methyl]thieno[2,3-d]pyrimidine-2,4(1H,3H)-dione], 0.025 µM.
The result for `CCCn1c(=O)n([C@H]2C[C@@H]2C)c(=O)c2c(C)c(Cn3nc[nH]c3=O)sc21` [Example 317, 5-Methyl-3-[(1S,2S)-2-methylcyclopropyl]-6-[(5-oxo-4,5-dihydro-1H-1,2,4-triazol-1-yl)methyl]-1-propylthieno[2,3-d]pyrimidine-2,4(1H,3H)-dione] reads 0.019 µM.
The result for `CCCCn1c(=O)n([C@H]2C[C@@H]2C)c(=O)c2c(C)c(Cn3nc[nH]c3=O)sc21` [Example 318, 1-Butyl-5-methyl-3-[(1S,2S)-2-methylcyclopropyl]-6-[(5-oxo-4,5-dihydro-H-1,2,4-triazol-1-yl)methyl]thieno[2,3-d]pyrimidine-2,4(1H,3H)-dione] reads 0.012 µM.
As to `Cc1c(Cn2nc[nH]c2=O)sc2c1c(=O)n([C@H]1C[C@@H]1C)c(=O)n2CC(F)F` [Example 320, 1-(2,2-Difluoroethyl)-5-methyl-3-[(S,2S)-2-methylcyclopropyl]-6-[(5-oxo-4,5-dihydro-1H-1,2,4-triazol-1-yl)methyl]thieno[2,3-d]pyrimidine-2,4(1H,3H)-dione], the IC50 was determined as 0.013 µM.
The result for `Cc1c(Cn2nc[nH]c2=O)sc2c1c(=O)n([C@H]1C[C@@H]1C)c(=O)n2CC(F)(F)F` [Example 321, 5-Methyl-3-[(1S,2S)-2-methylcyclopropyl]-6-[(5-oxo-4,5-dihydro-1H-1,2,4-triazol-1-yl)methyl]-1-(2,2,2-trifluoroethyl)thieno[2,3-d]pyrimidine-2,4(1H, 3H)-dione] reads 0.017 µM; that for `Cc1c(Cn2nc[nH]c2=O)sc2c1c(=O)n([C@H]1C[C@@H]1C)c(=O)n2CCCF` [Example 322, 1-(3-Fluoropropyl)-5-methyl-3-[(1S,2S)-2-methylcyclopropyl]-6-[(5-oxo-4,5-dihydro-H-1,2,4-triazol-1-yl)methyl]thieno[2,3-d]pyrimidine-2,4(1H,3H)-dione], 0.014 µM.
In the case of `Cc1c(Cn2nc[nH]c2=O)sc2c1c(=O)n([C@H]1C[C@@H]1C)c(=O)n2CCC(F)(F)F` [Example 323, 5-Methyl-3-[(1S,2S)-2-methylcyclopropyl]-6-[(5-oxo-4,5-dihydro-1H-1,2,4-triazol-1-yl)methyl]-1-(3,3,3-trifluoropropyl)thieno[2,3-d]pyrimidine-2,4(1H,3H)-dione], the IC50 stood at 0.0031 µM.
Consider `Cc1c(Cn2nc[nH]c2=O)sc2c1c(=O)n([C@H]1C[C@@H]1C)c(=O)n2CCCC(F)(F)F` [Example 324, 5-Methyl-3-[(1S,2S)-2-methylcyclopropyl]-6-[(5-oxo-4,5-dihydro-1H-1,2,4-triazol-1-yl)methyl]-1-(4,4,4-trifluorobutyl)thieno[2,3-d]pyrimidine-2,4(1H, 3H)-dione], for which the IC50 was 0.0055 µM.
For `COCCn1c(=O)n([C@H]2C[C@@H]2C)c(=O)c2c(C)c(Cn3nc[nH]c3=O)sc21` [Example 325, 1-(2-Methoxyethyl)-5-methyl-3-[(1S,2S)-2-methylcyclopropyl]-6-[(5-oxo-4,5-dihydro-1H-1,2,4-triazol-1-yl)methyl]thieno[2,3-d]pyrimidine-2,4(1H,3H)-dione] the value was 0.043 µM.
Consider `Cc1c(Cn2nc[nH]c2=O)sc2c1c(=O)n([C@H]1C[C@@H]1C)c(=O)n2CC1CC1(F)F` (stereo partly drawn) [Example 326, 1-[(2,2-Difluorocyclopropyl)methyl]-5-methyl-3-[(1S,2S)-2-methylcyclopropyl]-6-[(5-oxo-4,5-dihydro-1H-1,2,4-triazol-1-yl)methyl]thieno[2,3-d]pyrimidine-2,4(1H,3H)-dione], for which the IC50 stood at 0.017 µM.
For `Cc1c(Cn2nc[nH]c2=O)sc2c1c(=O)n([C@H]1C[C@@H]1C)c(=O)n2CC1CCC1` [Example 327, 1-(Cyclobutylmethyl)-5-methyl-3-[(1S,2S)-2-methylcyclopropyl]-6-[(5-oxo-4,5-dihydro-1H-1,2,4-triazol-1-yl)methyl]thieno[2,3-d]pyrimidine-2,4(1H,3H)-dione] the value was 0.0085 µM.
For `Cc1c(Cn2nc[nH]c2=O)sc2c1c(=O)n([C@H]1C[C@@H]1C)c(=O)n2CC1CC(F)(F)C1` [Example 328, 1-[(3,3-Difluorocyclobutyl)methyl]-5-methyl-3-[(1S,2S)-2-methylcyclopropyl]-6-[(5-oxo-4,5-dihydro-1H-1,2,4-triazol-1-yl)methyl]thieno[2,3-d]pyrimidine-2,4(1H,3H)-dione] the value was 0.0049 µM.

The record behind these values is patent US20200016159A1, “N3-CYCLICALLY SUBSTITUTED THIENOURACILS AND USE THEREOF” (Bayer Aktiengesellschaft, priority 2016, published 2020).
